This passage reports ΔTm results from ChEMBL document CHEMBL2176885, “Structural basis for the potent and selective inhibition of casein kinase 1 epsilon” (J Med Chem, 2012).

A word on the ΔTm: it is the shift of the melting midpoint relative to a reference.

Changes are numbered by the printed parent chain.

Assay [1] addresses Casein kinase I isoform delta (Homo sapiens) (UniProt P48730). Put plainly: Binding affinity to wild type human CK1delta (1-294 amino acids) assessed as change in melting temperature by differential scanning fluorimetry. (In general: Differential scanning fluorimetry follows unfolding on heating by fluorescence.)
Assay [2] deals with Casein kinase I isoform epsilon (Homo sapiens) (UniProt P49674). As to the kind of experiment: Binding affinity to wild type human CK1epsilon (1-294 amino acids) assessed as change in melting temperature by differential scanning fluorimetry.
Assay [3] has as its system T1, Casein kinase I isoform epsilon (Homo sapiens), P49674 [K69R].
T1 sequence (whole entry): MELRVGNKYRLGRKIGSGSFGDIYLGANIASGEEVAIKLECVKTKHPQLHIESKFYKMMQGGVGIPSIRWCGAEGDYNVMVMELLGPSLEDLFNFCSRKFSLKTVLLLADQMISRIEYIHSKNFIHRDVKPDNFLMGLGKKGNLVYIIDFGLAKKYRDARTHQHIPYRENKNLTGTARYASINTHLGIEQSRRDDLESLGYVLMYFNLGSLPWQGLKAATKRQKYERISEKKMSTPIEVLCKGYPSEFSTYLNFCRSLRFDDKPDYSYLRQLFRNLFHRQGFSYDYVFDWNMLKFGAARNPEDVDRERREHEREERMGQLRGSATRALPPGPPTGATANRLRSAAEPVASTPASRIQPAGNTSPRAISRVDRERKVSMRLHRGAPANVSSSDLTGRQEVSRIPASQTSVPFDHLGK
Put plainly: Binding affinity to human CK1epsilon K69R mutant assessed as change in melting temperature by differential scanning fluorimetry.

Assay [4] concerns T2, Casein kinase I isoform delta (Homo sapiens), P48730 [T67S].
T2 sequence (whole entry): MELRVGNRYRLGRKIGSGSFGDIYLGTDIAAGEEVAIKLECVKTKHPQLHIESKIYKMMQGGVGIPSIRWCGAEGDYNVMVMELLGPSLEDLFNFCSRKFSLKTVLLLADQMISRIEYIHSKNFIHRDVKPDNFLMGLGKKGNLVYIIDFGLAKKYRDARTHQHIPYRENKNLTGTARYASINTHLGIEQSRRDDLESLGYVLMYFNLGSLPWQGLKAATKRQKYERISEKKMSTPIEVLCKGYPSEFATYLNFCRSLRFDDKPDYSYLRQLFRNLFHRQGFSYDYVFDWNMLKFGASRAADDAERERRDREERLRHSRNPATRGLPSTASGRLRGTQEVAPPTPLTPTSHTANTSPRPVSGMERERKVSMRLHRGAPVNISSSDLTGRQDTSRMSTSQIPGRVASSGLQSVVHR
As to the kind of experiment: Binding affinity to human CK1delta T67S mutant assessed as change in melting temperature by differential scanning fluorimetry.

Assay [5] deals with T3, Casein kinase I isoform delta (Homo sapiens), P48730 [I55F].
T3 sequence (whole entry): T2 sequence (whole entry) with I55F, S67T
Put plainly: Binding affinity to human CK1delta I55F mutant assessed as change in melting temperature by differential scanning fluorimetry.

Assay [6] concerns T4, Casein kinase I isoform delta (Homo sapiens), P48730 [R69K].
T4 sequence (whole entry): T2 sequence (whole entry) with S67T, R69K
Put plainly: Binding affinity to human CK1delta R69K mutant assessed as change in melting temperature by differential scanning fluorimetry.

For assay [7], the system named is T5, Casein kinase I isoform epsilon (Homo sapiens), P49674 [F55I].
T5 sequence (whole entry): T1 sequence (whole entry) with F55I, R69K
As to the kind of experiment: Binding affinity to human CK1epsilon F55I mutant assessed as change in melting temperature by differential scanning fluorimetry.

For assay [8], the system named is T6, Casein kinase I isoform epsilon (Homo sapiens), P49674 [S67T].
T6 sequence (whole entry): T1 sequence (whole entry) with S67T, R69K
Put plainly: Binding affinity to human CK1epsilon S67T mutant assessed as change in melting temperature by differential scanning fluorimetry.

Casein kinase I isoform epsilon (Homo sapiens), sequence (P49674 whole entry, looked up, the tested form may be a part, canonical isoform): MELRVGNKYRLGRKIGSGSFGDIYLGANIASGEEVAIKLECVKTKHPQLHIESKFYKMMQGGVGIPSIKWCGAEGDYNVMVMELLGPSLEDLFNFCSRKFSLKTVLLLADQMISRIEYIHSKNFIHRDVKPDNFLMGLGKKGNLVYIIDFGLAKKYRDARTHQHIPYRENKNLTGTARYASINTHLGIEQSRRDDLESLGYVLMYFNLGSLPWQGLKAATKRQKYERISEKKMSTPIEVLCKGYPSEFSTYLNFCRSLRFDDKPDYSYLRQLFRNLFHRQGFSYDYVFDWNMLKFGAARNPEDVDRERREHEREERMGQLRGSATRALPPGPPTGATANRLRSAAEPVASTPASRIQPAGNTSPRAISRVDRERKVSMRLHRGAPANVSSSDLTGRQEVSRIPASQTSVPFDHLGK
Casein kinase I isoform delta (Homo sapiens), sequence (P48730 whole entry, looked up, the tested form may be a part, canonical isoform): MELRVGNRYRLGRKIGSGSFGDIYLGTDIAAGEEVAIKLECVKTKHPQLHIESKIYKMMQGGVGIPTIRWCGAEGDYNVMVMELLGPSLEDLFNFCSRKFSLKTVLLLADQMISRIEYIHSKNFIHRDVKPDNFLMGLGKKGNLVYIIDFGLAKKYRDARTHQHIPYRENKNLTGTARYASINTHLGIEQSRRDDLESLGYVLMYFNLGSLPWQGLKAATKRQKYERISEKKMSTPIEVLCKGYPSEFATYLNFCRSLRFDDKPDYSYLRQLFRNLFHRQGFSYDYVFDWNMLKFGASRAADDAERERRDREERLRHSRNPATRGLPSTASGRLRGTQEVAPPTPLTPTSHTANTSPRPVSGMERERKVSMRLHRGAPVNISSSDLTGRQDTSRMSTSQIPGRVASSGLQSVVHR

Regarding `Nc1ncnc2c1c(COc1cccc(Cl)c1)nn2C1CCOCC1`, the ΔTm stood at 4.8 °C in assay [1]; 11.5 °C in assay [2]; 11.5 °C in assay [3]; 4.8 °C in assay [4]; 13.2 °C in assay [5]; 4.8 °C in assay [6]. Further, the figures for the ΔTm in assay [7] and in assay [8] were 6.4 °C and 11.5 °C, respectively.

For `Nc1nccc(-c2c(-c3ccc(F)cc3)ncn2C2CCCCC2)n1`, the ΔTm in assay [1] came out at 9.6 °C; in assay [2], 8.6 °C; in assay [3] it was 8.6 °C; in assay [4], 9.6 °C; in assay [5] it was 9.6 °C; in assay [6], 9.6 °C. In addition, the figures for the ΔTm in assay [7] and in assay [8] were 10.4 °C and 8.6 °C, respectively.
